US10881720B2, “Nanoparticles for immune stimulation” (THE BOARD OF REGENTS OF THE UNIVERSITY OF TEXAS SYSTEM, priority 2014, dated 2021)

Tests used:
splenic B cells = test: In vitro CFSE-dilution proliferation of B220+ B cells in splenocyte culture; assay type: cell-based, WT C57BL/6 mice; conditions: over the doses tested (10 pg/ml, 10 ng/ml), three days
Protocol: (§1) Even activation of both iNKT and B cells by the weak agonist, soluble βGlcCer was enhanced by encapsulation of this glycolipid in nanoparticles (βGC-NanoP). Nanoparticles lacking glycolipids were not stimulatory for either iNKT or B cells in this assay (data not shown). Nanoparticles were assessed by Mass Spectrometry and Scanning Electron Microscopy for lipid content and particle size. In the study, spleen cells were isolated, then labeled with carboxyfluorescein diacetate succinimidyl ester (CFSE) and cultured for 3 days with soluble αGalCer, soluble βGlcCer, αGC-NanoPs, or βGC-NanoPs at concentrations of glycolipid noted. […] FIG. 2B is a graph showing a summary of the data in FIG. 2A. […] FIGS. 2C and 2D show the percentage of B220+ cells that dilute CFSE after 3 days of in vitro culture with soluble αGalCer and αGC-NanoP (FIG. 2C), or soluble βGlcCer and βGC-NanoP (FIG. 2D). Results shown are representative of 2 experiments, duplicate wells. *=p≤0.05 as compared to soluble glycolipid.
Total spleen cells from WT C57BL/6 mice were removed, a single cell suspension was created, and red blood cells were lysed. […] After three days of culture, cells were removed from the wells, labeled with fluorescently tagged lineage specific markers (anti-B220 for B cells and anti-TcRβ plus CD1d-tetramer for iNKT cells) and assessed for cell type specific CFSE dilution by FACS analysis. […]

iNKT cells = test: In vitro CFSE-dilution proliferation of iNKT cells in splenocyte culture; assay type: cell-based, WT C57BL/6 mice; conditions: for percent of iNKT cells proliferated (CFSE dilution): three days of culture
Protocol: as §1
Total spleen cells from WT C57BL/6 mice were removed, a single cell suspension was created, and red blood cells were lysed. Splenocytes were labeled with carboxyfluorescein succinimidyl ester (CFSE) using standard procedures and then cultured at 2×10^6 cells/well in a 96 well flat bottom tissue culture plate. At the initiation of this culture, cells were coincubated with 10 pg/ml or 10 ng/ml of αGalCer, βGlcCer, αGC-NanoP, βGC-NanoP, or left in media only. After three days of culture, cells were removed from the wells, labeled with fluorescently tagged lineage specific markers (anti-B220 for B cells and anti-TcRβ plus CD1d-tetramer for iNKT cells) and assessed for cell type specific CFSE dilution by FACS analysis. […] In comparison, 39% of iNKT cells proliferated in response to αGC-NanoP at the 10 ng/ml dose and 35% responded vigorously to the 10 pg/ml dose.

Molecule | B cell proliferation (CFSE dilution) (splenic B cells) | stimulation of iNKT cells (iNKT cells; either dose tested (10 pg/ml, 10 ng/ml), three days) | percent of iNKT cells proliferated (CFSE dilution) (iNKT cells; 10 pg/ml glycolipid) | percent of iNKT cells proliferated (CFSE dilution) (iNKT cells; 10 ng/ml glycolipid) [%]
βGlucosylceramide [βGlcCer] | not to the doses tested | neither βGlcCer alone nor βGC-NanoP were stimulatory | – | –
CCCCCCCCCCCCCCCCCCCCCCCCCC(=O)N[C@@H](CO[C@H]1O[C@H](CO)[C@H](O)[C@H](O)[C@H]1O)[C@H](O)[C@H](O)CCCCCCCCCCCCCC [αGalCer, αGalactosylceramide] | only to the higher doses | – | not responsive | 44
